Data from PubChem BioAssay (NCI).
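96-well plates; 48 h exposure; 5 concentrations. Endpoints by linear interpolation between flanking doses. Not reached: highest tested concentration assigned. GI50 = concentration required for 50% inhibition of growth. TGI is the concentration that stops growth completely.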

Legend:
Test in all cases: inhibition of tumour cell growth, NCI panel, 48 h
[1] = tested on: 786-0 renal
[2] = tested on: A498 renal
[3] = tested on: A549 NSCLC
[4] = tested on: ACHN renal
[5] = tested on: BT-549 breast
[6] = tested on: CCRF-CEM leukemia
[7] = tested on: DU-145 prostate
[8] = tested on: EKVX NSCLC
[9] = tested on: HCC-2998 colon
[10] = tested on: HCT-116 colon
[11] = tested on: HCT-15 colon
[12] = tested on: HOP-62 NSCLC
[13] = tested on: HOP-92 NSCLC
[14] = tested on: HS 578T breast
[15] = tested on: HT29 colon
[16] = tested on: IGROV1 ovarian
[17] = tested on: KM12 colon
[18] = tested on: LOX IMVI melanoma
[19] = tested on: M14 melanoma
[20] = tested on: MALME-3M melanoma
[21] = tested on: MCF7 breast
[22] = tested on: MDA-MB-231 breast
[23] = tested on: MDA-MB-435
[24] = tested on: MOLT-4 leukemia
[25] = tested on: NCI-H226 lung
[26] = tested on: NCI-H23 lung
[27] = tested on: NCI-H460 lung
[28] = tested on: NCI-H522 lung
[29] = tested on: OVCAR-3 ovarian
[30] = tested on: OVCAR-4 ovarian
[31] = tested on: OVCAR-5 ovarian
[32] = tested on: OVCAR-8 ovarian
[33] = tested on: PC-3 prostate
[34] = tested on: RXF 393 renal
[35] = tested on: SF-268 CNS
[36] = tested on: SF-295 CNS
[37] = tested on: SF-539 CNS
[38] = tested on: SK-MEL-2 melanoma
[39] = tested on: SK-MEL-28 melanoma
[40] = tested on: SK-MEL-5 melanoma
[41] = tested on: SK-OV-3 ovarian
[42] = tested on: SN12C renal
[43] = tested on: SNB-19 CNS
[44] = tested on: SNB-75 CNS
[45] = tested on: SR leukemia
[46] = tested on: SW-620 colon
[47] = tested on: T-47D breast
[48] = tested on: TK-10 renal
[49] = tested on: U251 CNS
[50] = tested on: UACC-257 melanoma
[51] = tested on: UACC-62 melanoma
[52] = tested on: UO-31 renal

## COc1cc(-c2nn(-c3cccc(NC(=O)NCCNC(=O)c4ccccc4)c3)cc2-c2ccncc2)ccc1Cl
[1]
  GI50: 1.94 µM
  TGI: 5.37 µM
[2]
  GI50: 4.72 µM
  TGI: > 100 µM
[3]
  GI50: 4.57 µM
  TGI: > 100 µM
[4]
  GI50: 3.14 µM
  TGI: > 100 µM
[5]
  GI50: 2.21 µM
  TGI: 8.05 µM
[6]
  GI50: 1.41 µM
  TGI: > 100 µM
[7]
  GI50: 4.72 µM
  TGI: > 100 µM
[8]
  GI50: 3.76 µM
  TGI: > 100 µM
[9]
  GI50: 5.42 µM
  TGI: > 100 µM
[10]
  GI50: 0.392 µM
  TGI: > 100 µM
[11]
  GI50: 1.97 µM
  TGI: > 100 µM
[12]
  GI50: 3.95 µM
  TGI: > 100 µM
[13]
  GI50: 2.63 µM
  TGI: > 100 µM
[14]
  GI50: 6.29 µM
  TGI: > 100 µM
[15]
  GI50: 0.965 µM
  TGI: 23.6 µM
[16]
  GI50: 4.68 µM
  TGI: > 100 µM
[17]
  GI50: 2.56 µM
  TGI: 40.2 µM
[18]
  GI50: 2.46 µM
  TGI: > 100 µM
[19]
  GI50: 2.88 µM
  TGI: > 100 µM
[20]
  GI50: 1.97 µM
  TGI: 6.11 µM
[21]
  GI50: 2.22 µM
  TGI: > 100 µM
[22]
  GI50: 2.99 µM
  TGI: > 100 µM
[23]
  GI50: 2.41 µM
  TGI: 9.29 µM
[24]
  GI50: 2.18 µM
  TGI: > 100 µM
[25]
  GI50: 2.73 µM
  TGI: 83.4 µM
[26]
  GI50: 3.37 µM
  TGI: > 100 µM
[27]
  GI50: 3.56 µM
  TGI: > 100 µM
[28]
  GI50: 1.79 µM
  TGI: 7.37 µM
[29]
  GI50: 2.93 µM
  TGI: > 100 µM
[30]
  GI50: 3.03 µM
  TGI: > 100 µM
[31]
  GI50: 3.78 µM
  TGI: > 100 µM
[32]
  GI50: 0.576 µM
  TGI: 41.7 µM
[33]
  GI50: 2.4 µM
  TGI: > 100 µM
[34]
  GI50: 1.94 µM
  TGI: 6.42 µM
[35]
  GI50: 4.27 µM
  TGI: > 100 µM
[36]
  GI50: 1.63 µM
  TGI: 4.57 µM
[37]
  GI50: 0.859 µM
  TGI: 7.44 µM
[38]
  GI50: 2.34 µM
  TGI: 5.43 µM
[39]
  GI50: 3.04 µM
  TGI: > 100 µM
[40]
  GI50: 1.55 µM
  TGI: 4.06 µM
[41]
  GI50: 4.21 µM
  TGI: > 100 µM
[42]
  GI50: 0.556 µM
  TGI: > 100 µM
[43]
  GI50: 4.83 µM
  TGI: > 100 µM
[44]
  GI50: 5.84 µM
  TGI: > 100 µM
[45]
  GI50: 2.42 µM
  TGI: > 100 µM
[46]
  GI50: 0.824 µM
  TGI: > 100 µM
[47]
  GI50: 1.25 µM
  TGI: 8.79 µM
[48]
  GI50: 6.09 µM
  TGI: 63.7 µM
[49]
  GI50: 2.62 µM
  TGI: > 100 µM
[50]
  GI50: 3.96 µM
  TGI: 21.1 µM
[51]
  GI50: 3.08 µM
  TGI: 31.2 µM
[52]
  GI50: 2.76 µM
  TGI: > 100 µM
